Laboratory results: US20180015100A1, “COMBINATION PRODUCTS FOR THE TREATMENT OF BACTERIAL INFECTIONS AND METHODS OF PRODUCING OR DOSING OF SAME” (priority 2016, published 2018)
Converted amounts (≈) assume the structure as drawn. Like-named read-outs stand apart in the source and are kept apart here.

How the values were obtained:
[1] = system: 385 Escherichia coli and 126 Klebsiella pneumoniae isolates; assay: MIC, MIC50 and MIC90 by reference broth microdilution against 511 UTI/bloodstream isolates (USA and Europe 2014-2015); assay type: cell-based; conditions: 511 isolates; for MIC90: read-out: MIC90
[2] = system: ESBL Klebsiella pneumoniae isolates; assay: Killing kinetics (time-kill); assay type: cell-based; conditions: 8X MIC
[3] = system: Escherichia coli isolates with an ESBL-phenotype; assay: In vitro MIC90 of a panel of approved antibiotics, US surveillance program; assay type: cell-based
[4] = system: ESBL Escherichia coli isolates; assay: MIC against isolates analyzed in time-kill experiments; assay type: cell-based
[5] = system: ESBL Klebsiella pneumoniae isolates; assay: as above; assay type: cell-based
[6] = system: ESBL Escherichia coli isolates; assay: Killing kinetics (time-kill); assay type: cell-based; conditions: 8X MIC
[7] = system: E. coli clinical isolate expressing the ESBL CTX-M-15; assay type: in vivo, mouse; conditions: 4 mg/kg, q4 hr
[8] = system: Klebsiella pneumoniae isolates; assay: MIC of cephalosporins alone or with clavulanate/tazobactam; assay type: cell-based; conditions: clavulanate 2:1, tazobactam 4 μg/mL
[9] = system: Enterobacter aerogenes isolates; assay: as above; assay type: cell-based; conditions: Klebsiella aerogenes, clavulanate 2:1, tazobactam 4 μg/mL
[10] = system: Klebsiella oxytoca isolates; assay: as above; assay type: cell-based; conditions: clavulanate 2:1, tazobactam 4 μg/mL
[11] = system: Enterobacter cloacae isolates; assay: as above; assay type: cell-based; conditions: clavulanate 2:1, tazobactam 4 μg/mL
[12] = system: Citrobacter freundii isolates; assay: as above; assay type: cell-based; conditions: clavulanate 2:1, tazobactam 4 μg/mL
[13] = system: Escherichia coli isolates; assay: as above; assay type: cell-based; conditions: clavulanate 2:1, tazobactam 4 μg/mL
clinical = conditions: human, in vivo
Experimental: The twice daily divided dose of study drug was administered approximately 12 hours apart. All subjects randomized to placebo received placebo oral capsules that were identical to study drug capsules and given according to the same dosing schedule and same quantity of capsules as subjects randomized to receive ceftibuten and clavulanate concurrently. All SDs, as well as the first daily dose of the MD period on […] were given while the subject was fasted. […] In addition, blood samples for assessment of trough (pre-dose) concentrations were collected on day 7, day 8, day 9, and alternate days thereafter through study day 17. […] Peak concentration (Cmax), time at which Cmax was observed (Tmax), area under the concentration-time curve to infinity (AUCinf), percent coefficient of variation (% CV), elimination half-life (T1/2), apparent total clearance of the drug from plasma after oral administration (CL/F), and apparent volume of distribution during terminal phase after non-intravenous administration (Vz/F) were determined. […] Similar to above, six subjects were randomized to receive active drug and two were randomized to receive placebo. […] Safety, tolerability and PK were assessed as described above.

[14] = Escherichia coli, E. coli (n = 124), ESBL-phenotype, read-out: MIC90
[15] = E. coli (n = 124), ESBL-phenotype

CC1(C)S[C@@H]2[C@H](/N=C/N3CCCCCC3)C(=O)N2[C@H]1C(=O)O [Mecillinam]
MIC50 [1]: 2 µg/mL (≈ 6.15 µM)
MIC90 [1]: > 32 µg/mL

C[C@@H](O)[C@H]1C(=O)N2C(C(=O)O)=C(S[C@@H]3CN[C@H](C(=O)N(C)C)C3)[C@H](C)[C@H]12 [Meropenem, meropenem]
Change in Log10 CFU/mL From Inoculum (0 hr) ([2]; AKPN1159, 2 h): −2.64 Log10 CFU/mL
Change in Log10 CFU/mL From Inoculum (0 hr) ([2]; AKPN1159, 4 h): −4.16 Log10 CFU/mL
Change in Log10 CFU/mL From Inoculum (0 hr) ([2]; AKPN1159, 6 h): −4.73 Log10 CFU/mL
Change in Log10 CFU/mL From Inoculum (0 hr) ([2]; AKPN1159, 24 h): −6.33 Log10 CFU/mL
Change in Log10 CFU/mL From Inoculum (0 hr) ([2]; AKPN1162, 2 h): −3.01 Log10 CFU/mL
Change in Log10 CFU/mL From Inoculum (0 hr) ([2]; AKPN1162, 4 h): −3.58 Log10 CFU/mL
Change in Log10 CFU/mL From Inoculum (0 hr) ([2]; AKPN1162, 6 h): −3.66 Log10 CFU/mL
Change in Log10 CFU/mL From Inoculum (0 hr) ([2]; AKPN1162, 24 h): −6.48 Log10 CFU/mL
MIC90 [3, 14]: 0.03 µg/mL (≈ 0.0782 µM)
MIC50 [1]: 0.03 µg/mL (≈ 0.0782 µM)
EUCAST % I ([1]; EUCAST 2016 criteria): 3.3%
MIC90 [1]: 0.12 µg/mL (≈ 0.313 µM)
MIC ([4]; AECO1156 (CTXM-15, TEM-OSBL)): 0.03 µg/mL (≈ 0.0782 µM)
MIC ([4]; AECO1157 (CTXM-15, TEM-OSBL)): 0.03 µg/mL (≈ 0.0782 µM)
MIC ([4]; AECO1162 (CTX-M-14)): 0.03 µg/mL (≈ 0.0782 µM)
MIC ([4]; AECO1166 (SHV-12)): 0.016 µg/mL (≈ 0.0417 µM)
MIC ([5]; AKP1162 (SHV-12, CTX-M-15)): 0.06 µg/mL (≈ 0.156 µM)
MIC ([5]; AKPN1159 (SHV-12)): 0.03 µg/mL (≈ 0.0782 µM)
Change in Log10 CFU/mL From Inoculum (0 hr) ([6]; AECO1156, 2 h): −3.41 Log10 CFU/mL
Change in Log10 CFU/mL From Inoculum (0 hr) ([6]; AECO1156, 4 h): −4.08 Log10 CFU/mL
Change in Log10 CFU/mL From Inoculum (0 hr) ([6]; AECO1156, 6 h): −5.69 Log10 CFU/mL
Change in Log10 CFU/mL From Inoculum (0 hr) ([6]; AECO1156, 24 h): −5.69 Log10 CFU/mL
Change in Log10 CFU/mL From Inoculum (0 hr) ([6]; AECO1157, 2 h): −3.49 Log10 CFU/mL
Change in Log10 CFU/mL From Inoculum (0 hr) ([6]; AECO1157, 4 h): −4.98 Log10 CFU/mL
Change in Log10 CFU/mL From Inoculum (0 hr) ([6]; AECO1157, 6 h): −4.38 Log10 CFU/mL
Change in Log10 CFU/mL From Inoculum (0 hr) ([6]; AECO1157, 24 h): −5.98 Log10 CFU/mL
Change in Log10 CFU/mL From Inoculum (0 hr) ([6]; AECO1162, 2 h): −2.91 Log10 CFU/mL
Change in Log10 CFU/mL From Inoculum (0 hr) ([6]; AECO1162, 4 h): −3.42 Log10 CFU/mL
Change in Log10 CFU/mL From Inoculum (0 hr) ([6]; AECO1162, 6 h): −4.39 Log10 CFU/mL
Change in Log10 CFU/mL From Inoculum (0 hr) ([6]; AECO1162, 24 h): −6.08 Log10 CFU/mL
Change in Log10 CFU/mL From Inoculum (0 hr) ([6]; AECO1166, 2 h): −4.17 Log10 CFU/mL
Change in Log10 CFU/mL From Inoculum (0 hr) ([6]; AECO1166, 4 h): −6.08 Log10 CFU/mL
Change in Log10 CFU/mL From Inoculum (0 hr) ([6]; AECO1166, 6 h): −6.08 Log10 CFU/mL
Change in Log10 CFU/mL From Inoculum (0 hr) ([6]; AECO1166, 24 h): −6.08 Log10 CFU/mL
bacterial CFU, bladder [7]: 3.75 log10 CFU
bacterial CFU, kidneys [7]: 3.11 log10 CFU
bacterial CFU, urine [7]: 3.25 log10 CFU

O=C1CN(/N=C/c2ccc([N+](=O)[O-])o2)C(=O)N1 [Nitrofurantoin]
MIC50 [1]: 16 µg/mL (≈ 67.2 µM)
MIC90 [1]: 256 µg/mL (≈ 1070 µM)

C[C@]1(Cn2ccnn2)[C@H](C(=O)O)N2C(=O)C[C@H]2S1(=O)=O [Tazobactam, tazobactam]
MIC ([8]; AKPN1159 (SHV-12)): > 64 µg/mL
MIC ([8]; AKPN1161 (SHV-7)): > 64 µg/mL
MIC ([8]; AKPN1162 (CTX-M-15, SHV-12)): > 64 µg/mL
MIC ([8]; AKPN1166 (CTX-M-14, SHV-12)): > 64 µg/mL
MIC ([8]; AKPN1167 (SHV-2)): > 64 µg/mL
MIC ([9]; AEAE1027 (CTX-M-14)): > 64 µg/mL
MIC ([9]; AEAE1029 (CTX-M-15)): > 64 µg/mL
MIC ([10]; AKOX1005 (SHV-2, TEM-1, DHA-1)): > 64 µg/mL
MIC ([10]; AKOX1009 (CTX-M-15)): > 64 µg/mL
MIC ([11]; AECL1065 (CTX-M-15)): > 64 µg/mL
MIC ([11]; AECL1067 (CTX-M-3)): > 64 µg/mL
MIC ([12]; ACFR1034 (CTX-M-15, TEM-OSBL)): > 64 µg/mL
MIC ([12]; ACFR1035 (CTX-M-3, TEM-OSBL)): > 64 µg/mL
MIC ([13]; AECO001 (no ESBL)): > 64 µg/mL
MIC ([13]; AECO1078 (CTX-M-15)): > 64 µg/mL
MIC ([13]; AECO1147 (CTX-M-15)): > 64 µg/mL
MIC ([13]; AECO1157 (CTX-M-15, TEM-OSBL)): > 64 µg/mL
MIC ([13]; AECO1159 (CTX-M-15)): > 64 µg/mL
MIC ([13]; AECO1169 (CTX-M-1, TEM-OSBL)): > 64 µg/mL
MIC ([13]; AECO1172 (CTX-M-14)): > 64 µg/mL

CN(C)c1cc(NC(=O)CNC(C)(C)C)c(O)c2c1C[C@H]1C[C@H]3[C@H](N(C)C)C(O)=C(C(N)=O)C(=O)[C@@]3(O)C(O)=C1C2=O [Tigecycline]
MIC90 ([3]; Escherichia coli): 0.25 µg/mL (≈ 0.427 µM)

NC[C@H]1O[C@H](O[C@H]2[C@H](O)[C@@H](O[C@H]3O[C@H](CO)[C@@H](O)[C@H](N)[C@H]3O)[C@H](N)C[C@@H]2N)[C@H](N)C[C@@H]1O [Tobramycin]
MIC90 [3, 14]: > 8 µg/mL

NCC(=O)CCO [amino ketone metabolite of clavulanate]
% of parent exposure (clinical): approximately 8.5%

Colistin
MIC90 [3, 15]: 0.25 µg/mL

Gentamicin
MIC90 [3, 15]: >8 µg/mL
